These results are taken from patent US12139520B2 (priority 2020, dated 2024).

Bridge positions count the residues as written; N and C are the ends. Square brackets hold non-standard residues; d marks the D form. Peptide text beside a SMILES is read from it. Hyp = O=C(O)[C@@H]1C[C@@H](O)CN1; Cit = NC(=O)NCCC[C@H](N)C(=O)O

The target in one data set is T1, hAMY3 receptor (Homo sapiens, UniProt O60896+P30988).
T1 sequence (P30988 25-474): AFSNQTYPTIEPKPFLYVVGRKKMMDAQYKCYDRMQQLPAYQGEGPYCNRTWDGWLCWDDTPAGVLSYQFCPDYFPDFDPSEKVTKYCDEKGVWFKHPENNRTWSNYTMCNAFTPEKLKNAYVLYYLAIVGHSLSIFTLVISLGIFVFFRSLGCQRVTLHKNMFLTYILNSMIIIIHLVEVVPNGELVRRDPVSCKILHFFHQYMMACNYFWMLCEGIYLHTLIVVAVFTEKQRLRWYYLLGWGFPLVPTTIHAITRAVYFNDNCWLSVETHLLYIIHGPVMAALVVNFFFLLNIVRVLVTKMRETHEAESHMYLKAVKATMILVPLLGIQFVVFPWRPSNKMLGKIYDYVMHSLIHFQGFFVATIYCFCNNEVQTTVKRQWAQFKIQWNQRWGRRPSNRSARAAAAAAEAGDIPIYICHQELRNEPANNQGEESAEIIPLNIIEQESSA
T1 sequence (O60896 24-148 partner): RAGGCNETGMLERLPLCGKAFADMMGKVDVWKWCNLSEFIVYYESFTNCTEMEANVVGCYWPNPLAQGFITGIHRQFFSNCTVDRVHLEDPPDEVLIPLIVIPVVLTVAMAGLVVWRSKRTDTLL
The data set is described as follows: cAMP assay for in vitro receptor activation, hAMY3-R. The conditions noted are these: cAMP assay, hAMY3 receptor; read-out: hAMY3R EC50. The data set is classed as cell-based. A digest of the protocol:
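Read-out is TR-FRET cAMP signal, recorded one hour after reagent addition, following 30 min room-temperature stimulation of stable hAMY3 cells with graded compound doses in casein/IBMX (0.5 mM) buffer.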
In general terms: cAMP levels reflect the balance of adenylyl cyclase and phosphodiesterase activity.

Data set [1] is described as follows: Physical stability of peptide analogues (Thioflavin T fibrillation). The data set is classed as physicochemical. The conditions noted are these: maximum ThT signal normalized between hAMY maximum and buffer background; 40° C., shaking, four days; pH 7 per table title. A digest of the protocol: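 Maximum ThT emission at 480 nm, after LOESS smoothing, is given as percent of the span from buffer background to hAMY. Conditions: 50 mM buffer at pH 4 or 7, 4 μM dye, 40 °C, repeated shaking, readings every 10 min for four days.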

One may read the EC50 as the concentration giving half of the maximal effect. As to `CC[C@H](C)[C@H](NC(=O)[C@H](CCC(N)=O)NC(=O)[C@H](Cc1c[nH]cn1)NC(=O)[C@H](C)NC(=O)[C@H](CC(C)C)NC(=O)[C@H](CCCNC(=N)N)NC(=O)[C@H](CCC(N)=O)NC(=O)[C@@H](NC(=O)[C@@H](NC(=O)[C@@H]1CSSC[C@H](NC(=O)CN)C(=O)N[C@@H](CCCNC(=N)N)C(=O)N[C@@H]([C@@H](C)O)C(=O)NCC(=O)N[C@@H]([C@@H](C)O)C(=O)N1)[C@@H](C)O)C(C)C)C(=O)N[C@@H](Cc1ccc(O)cc1)C(=O)N[C@@H](CCC(N)=O)C(=O)N[C@@H](Cc1ccccc1)C(=O)N[C@H](C(=O)N[C@@H](CC(=O)O)C(=O)N[C@@H](CCCCN)C(=O)N[C@@H](CC(=O)O)C(=O)N[C@@H](CCCCN)C(=O)N[C@@H](CC(=O)O)C(=O)N[C@@H](CC(N)=O)C(=O)N[C@H](C(=O)N[C@@H](C)C(=O)N1CCC[C@H]1C(=O)N[C@@H](CCCNC(=N)N)C(=O)N[C@H](C(=O)N[C@@H](CC(N)=O)C(=O)N[C@H](C(=O)NCC(=O)N1CCC[C@H]1C(=O)N[C@@H](CC(N)=O)C(=O)NCC(=O)N[C@@H](Cc1ccc(O)cc1)C(N)=O)C(C)C)[C@@H](C)O)C(C)C)[C@@H](C)O` [compound 84] (H-GCRTGTCTVQRLAHQIYQFTDKDKDNVAPRTNVGPNGY-NH2; disulfide 2-7; N-terminus assumed), the EC50 at hAMY3 receptor turned out to be 0.015 nM. Besides, the “Max ThT signal (%)” value in data set [1] is 14.200%.

On to `CC[C@H](C)[C@H](NC(=O)[C@H](CCCCN)NC(=O)[C@@H](NC(=O)[C@H](CCCNC(=N)N)NC(=O)[C@@H]1CCCN1C(=O)[C@H](C)NC(=O)[C@@H](NC(=O)[C@H](CC(N)=O)NC(=O)[C@H](CC(=O)O)NC(=O)[C@H](CCCCN)NC(=O)[C@H](CC(=O)O)NC(=O)[C@H](CCCCN)NC(=O)[C@H](CC(=O)O)NC(=O)[C@@H](NC(=O)[C@H](Cc1ccccc1)NC(=O)[C@H](CCC(N)=O)NC(=O)[C@H](Cc1ccc(O)cc1)NC(=O)[C@@H](NC(=O)[C@H](CCC(N)=O)NC(=O)[C@H](Cc1c[nH]cn1)NC(=O)[C@H](C)NC(=O)[C@H](CC(C)C)NC(=O)[C@H](Cc1c[nH]c2ccccc12)NC(=O)[C@H](CCC(N)=O)NC(=O)[C@@H](NC(=O)[C@@H](NC(=O)[C@@H]1CSSC[C@H](NC(=O)CN)C(=O)N[C@@H](CCCNC(=N)N)C(=O)N[C@@H](Cc2ccccc2)C(=O)NCC(=O)N[C@@H]([C@@H](C)O)C(=O)N1)[C@@H](C)O)C(C)C)[C@@H](C)CC)[C@@H](C)O)C(C)C)[C@@H](C)O)C(=O)NCC(=O)N1CCC[C@H]1C(=O)N[C@@H](CC(N)=O)C(=O)NCC(=O)N1C[C@H](O)C[C@H]1C(N)=O` [compound 343] (H-GCRFGTCTVQWLAHQIYQFTDKDKDNVAPRTKIGPNG[Hyp]-NH2; disulfide 2-7; N-terminus assumed), for which the EC50 at hAMY3 receptor was found to be 0.017 nM. The “Max ThT signal (%)” value in data set [1] came to 24.850%.

As to `CC[C@H](C)[C@H](NC(=O)[C@H](CCCCN)NC(=O)[C@@H](NC(=O)[C@H](CCCNC(=N)N)NC(=O)[C@@H]1CCCN1C(=O)[C@H](C)NC(=O)[C@@H](NC(=O)[C@H](CC(N)=O)NC(=O)[C@H](CC(=O)O)NC(=O)[C@H](CCCCN)NC(=O)[C@H](CC(=O)O)NC(=O)[C@H](CCCCN)NC(=O)[C@H](CC(=O)O)NC(=O)[C@@H](NC(=O)[C@H](Cc1ccccc1)NC(=O)[C@H](CCC(N)=O)NC(=O)[C@H](Cc1ccc(O)cc1)NC(=O)[C@@H](NC(=O)[C@H](CCC(N)=O)NC(=O)[C@H](Cc1c[nH]cn1)NC(=O)[C@H](C)NC(=O)[C@H](CC(C)C)NC(=O)[C@H](CCCNC(N)=O)NC(=O)[C@H](CCC(N)=O)NC(=O)[C@@H](NC(=O)[C@@H](NC(=O)[C@@H]1CSSC[C@H](NC(=O)CN)C(=O)N[C@@H](CCCNC(=N)N)C(=O)N[C@@H](Cc2ccccc2)C(=O)NCC(=O)N[C@@H]([C@@H](C)O)C(=O)N1)[C@@H](C)O)C(C)C)[C@@H](C)CC)[C@@H](C)O)C(C)C)[C@@H](C)O)C(=O)NCC(=O)N1CCC[C@H]1C(=O)N[C@@H](CCC(N)=O)C(=O)NCC(=O)N1C[C@H](O)C[C@H]1C(N)=O` [compound 274] (H-GCRFGTCTVQ[Cit]LAHQIYQFTDKDKDNVAPRTKIGPQG[Hyp]-NH2; disulfide 2-7; N-terminus assumed), the EC50 at hAMY3 receptor came to 0.019 nM. Besides, in data set [1], the “Max ThT signal (%)” value is 26.800%.

For the compound `CC[C@H](C)[C@H](NC(=O)[C@H](CCC(N)=O)NC(=O)[C@H](C)NC(=O)[C@H](C)NC(=O)[C@H](CC(C)C)NC(=O)[C@H](CCCNC(N)=O)NC(=O)[C@H](CCC(N)=O)NC(=O)[C@@H](NC(=O)[C@@H](NC(=O)[C@@H]1CSSC[C@H](NC(=O)[C@@H](N)CCCCN)C(=O)N[C@@H](CC(N)=O)C(=O)N[C@@H]([C@@H](C)O)C(=O)N[C@@H](C)C(=O)N[C@@H]([C@@H](C)O)C(=O)N1)[C@@H](C)O)C(C)C)C(=O)N[C@@H](Cc1ccc(O)cc1)C(=O)N[C@@H](CCC(N)=O)C(=O)N[C@@H](Cc1ccccc1)C(=O)N[C@H](C(=O)N[C@@H](CC(=O)O)C(=O)N[C@@H](CCCCN)C(=O)N[C@@H](CC(=O)O)C(=O)N[C@@H](CCCCN)C(=O)N[C@@H](CC(=O)O)C(=O)N[C@@H](CC(N)=O)C(=O)N[C@H](C(=O)N[C@@H](C)C(=O)N1CCC[C@H]1C(=O)N1CCC[C@H]1C(=O)N[C@H](C(=O)N[C@@H](CC(N)=O)C(=O)N[C@H](C(=O)NCC(=O)N[C@@H](CO)C(=O)N[C@@H](CC(N)=O)C(=O)NCC(=O)N1C[C@H](O)C[C@H]1C(N)=O)C(C)C)[C@@H](C)O)C(C)C)[C@@H](C)O` [compound 243] (H-KCNTATCTVQ[Cit]LAAQIYQFTDKDKDNVAPPTNVGSNG[Hyp]-NH2; disulfide 2-7; N-terminus assumed), at hAMY3 receptor, the EC50 turned out to be 0.018 nM. Further, in data set [1], the “Max ThT signal (%)” value turned out to be 8.550%.

`CC[C@H](C)[C@H](NC(=O)[C@H](CCC(N)=O)NC(=O)[C@H](Cc1c[nH]cn1)NC(=O)[C@H](C)NC(=O)[C@H](CC(C)C)NC(=O)[C@H](CCCNC(=N)N)NC(=O)[C@H](CCC(N)=O)NC(=O)[C@@H](NC(=O)[C@@H](NC(=O)[C@@H]1CSSC[C@H](NC(=O)CN)C(=O)N[C@@H](CCCNC(=N)N)C(=O)N[C@@H]([C@@H](C)O)C(=O)NCC(=O)N[C@@H]([C@@H](C)O)C(=O)N1)[C@@H](C)O)C(C)C)C(=O)N[C@@H](Cc1ccc(O)cc1)C(=O)N[C@@H](CCC(N)=O)C(=O)N[C@@H](Cc1ccccc1)C(=O)N[C@H](C(=O)N[C@@H](CC(=O)O)C(=O)N[C@@H](CCCCN)C(=O)N[C@@H](CC(=O)O)C(=O)N[C@@H](CCCCN)C(=O)N[C@@H](CC(=O)O)C(=O)N[C@@H](CC(N)=O)C(=O)N[C@H](C(=O)N[C@@H](C)C(=O)N1CCC[C@H]1C(=O)N[C@@H](CCCNC(=N)N)C(=O)N[C@@H](CO)C(=O)N[C@@H](CC(N)=O)C(=O)N[C@H](C(=O)N[C@@H](CO)C(=O)N1CCC[C@H]1C(=O)N[C@@H](CC(N)=O)C(=O)NCC(=O)N1C[C@H](O)C[C@H]1C(N)=O)C(C)C)C(C)C)[C@@H](C)O` [compound 166] (H-GCRTGTCTVQRLAHQIYQFTDKDKDNVAPRSNVSPNG[Hyp]-NH2; disulfide 2-7; N-terminus assumed): the EC50 on hAMY3 receptor was found to be 0.056 nM. Besides, in data set [1], the “Max ThT signal (%)” value is reported as 2.000%.
